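Dose response: 5 concentrations. Exposure: 48 h. Format: 96-well plates. Endpoint: linear interpolation; highest concentration if not reached. The concentration for 50% growth inhibition is given as GI50.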 Active and inactive are the calls of the source. Rule as the data show it: active = GI50 up to about 1.1 µM and inactive = higher. Where a SMILES comes first, the peptide text is derived from it. The star is where a group is joined. Cbz = O=C(OCc1ccccc1)*; OBn = c1ccc(CO*)cc1
Columns and labels:
Test in all cases: DTP human tumour cell line panel, 48 h
786-0 = system: 786-0
BT-549 = system: BT-549
CAKI-1 = system: CAKI-1
HCC 2998 = system: HCC 2998
HOP-92 = system: HOP-92
HT-29 = system: HT-29
Hs-578T = system: Hs-578T
K562 = system: K562
MDA-MB-435 = system: MDA-MB-435
MDA-N = system: MDA-N
NCI-H522 = system: NCI-H522
RPMI-8226 = system: RPMI-8226
SF-268 = system: SF-268
SK-MEL-5 = system: SK-MEL-5
SK-OV-3 = system: SK-OV-3
SNB-19 = system: SNB-19
TK-10 = system: TK-10
U-251 = system: U-251
NCI/ADR-RES = system: NCI/ADR-RES

| Structure (SMILES) | GI50 (786-0) | GI50 (BT-549) | GI50 (CAKI-1) | GI50 (HCC 2998) | GI50 (HOP-92) | GI50 (HT-29) | GI50 (Hs-578T) | GI50 (K562) | GI50 (MDA-MB-435) | GI50 (MDA-N) | GI50 (NCI-H522) | GI50 (RPMI-8226) | GI50 (SF-268) | GI50 (SK-MEL-5) | GI50 (SK-OV-3) | GI50 (SNB-19) | GI50 (TK-10) | GI50 (U-251) | GI50 (NCI/ADR-RES) |
| --- | --- | --- | --- | --- | --- | --- | --- | --- | --- | --- | --- | --- | --- | --- | --- | --- | --- | --- | --- |
| S=C(/N=c1/sc(Nc2ccccc2)nc2sc3c(c12)CCCC3)Nc1ccccc1 | > 62.5 µM (inactive) | > 62.5 µM (inactive) | > 62.5 µM (inactive) | > 62.5 µM (inactive) | > 62.5 µM (inactive) | > 62.5 µM (inactive) | > 62.5 µM (inactive) | > 62.5 µM (inactive) | > 62.5 µM (inactive) | > 62.5 µM (inactive) | > 62.5 µM (inactive) | 62.2 µM (inactive) | > 62.5 µM (inactive) | > 62.5 µM (inactive) | > 62.5 µM (inactive) | > 62.5 µM (inactive) | > 62.5 µM (inactive) | > 62.5 µM (inactive) |  |
| COc1cc(C)c(S(=O)(=O)N(CCCN)OCCCN)c(C)c1C | 45.6 µM (inactive) | 26.6 µM (inactive) | > 100 µM (inactive) | 16.6 µM (inactive) |  | 46.5 µM (inactive) | 23 µM (inactive) | 15.6 µM (inactive) | 38.9 µM (inactive) | 36.9 µM (inactive) | 22 µM (inactive) | 17.5 µM (inactive) | 36.7 µM (inactive) | 20.8 µM (inactive) | > 100 µM (inactive) | 42 µM (inactive) | 34 µM (inactive) | 29.9 µM (inactive) | > 100 µM (inactive) |
| O=C(O)Cc1ccc([N+](=O)[O-])cc1[N+](=O)[O-] | > 100 µM (inactive) | > 100 µM (inactive) | > 100 µM (inactive) |  |  | > 100 µM (inactive) | 70.6 µM (inactive) | > 100 µM (inactive) | > 100 µM (inactive) | > 100 µM (inactive) | > 100 µM (inactive) | > 100 µM (inactive) | > 100 µM (inactive) | > 100 µM (inactive) | > 100 µM (inactive) | > 100 µM (inactive) | > 100 µM (inactive) | > 100 µM (inactive) | > 100 µM (inactive) |
| NC(=S)C1=C(N)Oc2c(c(=O)oc3ccccc23)C1c1ccc(Br)cc1 (stereo not drawn) | > 100 µM (inactive) | > 100 µM (inactive) | > 100 µM (inactive) | > 100 µM (inactive) | 40 µM (inactive) | > 100 µM (inactive) |  | 42.1 µM (inactive) | > 100 µM (inactive) | > 100 µM (inactive) | 74.8 µM (inactive) |  | > 100 µM (inactive) | > 100 µM (inactive) | > 100 µM (inactive) | > 100 µM (inactive) | > 100 µM (inactive) | > 100 µM (inactive) | > 100 µM (inactive) |
| N#Cc1c(NC(=S)Nc2ccccc2)sc2c1CCCC2 | > 100 µM (inactive) | > 100 µM (inactive) | > 100 µM (inactive) | > 100 µM (inactive) |  | > 100 µM (inactive) | > 100 µM (inactive) | > 100 µM (inactive) | > 100 µM (inactive) | > 100 µM (inactive) | > 100 µM (inactive) | > 100 µM (inactive) | > 100 µM (inactive) | > 100 µM (inactive) |  | > 100 µM (inactive) | > 100 µM (inactive) | > 100 µM (inactive) | > 100 µM (inactive) |
| COC(=O)C(Cc1ccc(O)cc1)NC(=O)C(CC(=O)OCc1ccccc1)NC(=O)OCc1ccccc1 (stereo not drawn) (Cbz-Asp(OBn)-Tyr-OMe; configuration not given here) | 18.2 µM (inactive) | 22.6 µM (inactive) |  | 17.6 µM (inactive) | 51.1 µM (inactive) | 17.1 µM (inactive) | 24.9 µM (inactive) | 42.5 µM (inactive) |  | 19.4 µM (inactive) |  | 24.9 µM (inactive) |  | 18.2 µM (inactive) |  | 18.3 µM (inactive) | 18.2 µM (inactive) | 20.3 µM (inactive) |  |
| Oc1cc(O)cc(-c2nc3cc(F)ccc3s2)c1 | 20.6 µM (inactive) | 20.2 µM (inactive) | 25.5 µM (inactive) |  |  | 21.4 µM (inactive) |  |  | 30.5 µM (inactive) | 30.5 µM (inactive) | 18.7 µM (inactive) | 18.5 µM (inactive) | 19.4 µM (inactive) | 17.5 µM (inactive) | 25.8 µM (inactive) | 23.7 µM (inactive) | 30.3 µM (inactive) | 22.8 µM (inactive) | 36.8 µM (inactive) |
| Cc1nc2ccc(NC3OC(CO)C(O)C(O)C3O)cc2c(=O)n1-c1ccccc1 (stereo not drawn) | > 100 µM (inactive) | > 100 µM (inactive) | > 100 µM (inactive) | > 100 µM (inactive) |  | > 100 µM (inactive) | > 100 µM (inactive) | > 100 µM (inactive) | > 100 µM (inactive) | > 100 µM (inactive) | > 100 µM (inactive) | > 100 µM (inactive) | > 100 µM (inactive) | 58.3 µM (inactive) |  | > 100 µM (inactive) | > 100 µM (inactive) | > 100 µM (inactive) | > 100 µM (inactive) |
| O=C1/C(=C/c2ccc(Cl)cc2)CSC/C1=C\c1ccc(Cl)cc1 | 3.08 µM (inactive) | 2.21 µM (inactive) | 4.06 µM (inactive) | 2.07 µM (inactive) | 21.2 µM (inactive) | 1.97 µM (inactive) |  | 3.08 µM (inactive) |  | 3.06 µM (inactive) | 4.99 µM (inactive) | 0.798 µM (active) | 5.96 µM (inactive) | 3.45 µM (inactive) | 5.32 µM (inactive) | 4.84 µM (inactive) | 3.18 µM (inactive) | 1.67 µM (inactive) | 6.27 µM (inactive) |
| CN1N(c2ccccc2)C(=O)C2=NC=C(C#N)C(=N)C21C (stereo not drawn) | > 100 µM (inactive) | > 100 µM (inactive) | > 100 µM (inactive) | > 100 µM (inactive) | > 100 µM (inactive) |  |  | > 100 µM (inactive) | > 100 µM (inactive) | > 100 µM (inactive) | > 100 µM (inactive) | > 100 µM (inactive) |  | > 100 µM (inactive) | > 100 µM (inactive) | > 100 µM (inactive) | > 100 µM (inactive) | > 100 µM (inactive) | > 100 µM (inactive) |
| Brc1ccc(-c2[nH]c3ccccc3c2/N=N\c2ccccc2)cc1 | 18.2 µM (inactive) | 22 µM (inactive) | 14.7 µM (inactive) | 16.8 µM (inactive) | 18.2 µM (inactive) |  | 20.7 µM (inactive) | 23.2 µM (inactive) | 19.1 µM (inactive) | 16.6 µM (inactive) | 17.6 µM (inactive) | 21.7 µM (inactive) | 17.9 µM (inactive) | 18.3 µM (inactive) | 18.9 µM (inactive) | 20.9 µM (inactive) | 21.1 µM (inactive) | 17.6 µM (inactive) |  |
| Cc1ncc([N+](=O)[O-])n1CCNC(=O)CCCCCn1ccnc1[N+](=O)[O-] | > 100 µM (inactive) | > 100 µM (inactive) | > 100 µM (inactive) | > 100 µM (inactive) |  | > 100 µM (inactive) | > 100 µM (inactive) | > 100 µM (inactive) | > 100 µM (inactive) | > 100 µM (inactive) | > 100 µM (inactive) |  | > 100 µM (inactive) | > 100 µM (inactive) | > 100 µM (inactive) | > 100 µM (inactive) |  | > 100 µM (inactive) | > 100 µM (inactive) |
